Test results: paper PMC11477000, “Enantioselective Binding of Proton Pump Inhibitors to Alpha1-Acid Glycoprotein and Human Serum Albumin—A Chromatographic, Spectroscopic, and In Silico Study” (International Journal of Molecular Sciences, 2024)
“And” between values parts separate entries of the source, which are not always exact repeats. Equal values may be shown once.

How the values were obtained:
[1] = test system: α1-acid glycoprotein (AGP); assay: Bound percentage by HPLC on AGP column, extrapolation to zero organic modifier; format: in vitro ADME, human; conditions: for Bound percentage (b%), average: average of IPA, EtOH, MeOH
Experimental: (§1) Chromatographic columns containing proteins can be used to determine the percentage of drug binding. A plot of the natural logarithm of the retention factors against the proportion of organic modifiers was created. […] The intercept of these linear equations can be used to calculate the bound percentage according to Equation (4) (see in Section 3.2).
Chromatographic measurements were carried out on two separate HPLC systems. The AGP binding study was performed on a Waters 2695e chromatographic system paired with a Waters 2996 PDA detector, controlled by Empower 3 FR5 (Waters Corp., Milford, MA, USA), while the HSA binding study was performed on an Agilent 1100 HPLC system, consisting of an inline degasser (G1322A), a quaternary pump (G1311A), an automatic injector (G1329A) paired with sample thermostat (G1330A), a column thermostat (G1316A), and a diode array detector (G1315A) with Agilent Chemstation B04.03-SP2 software (Agilent, Bronnwald, Germany). For the binding studies, two protein-based chiral stationary phases were utilized. The chromatographic binding study for AGP was conducted on a ChromTech Chiral-AGP column (150 mm × 4.0 mm; ChromTech Ltd., Congleton, UK), while the binding study for HSA was performed on a Daicel Chiralpak HSA column (50 mm × 4.0 mm; Daicel Corp., Osaka, Japan). The detection wavelength was 210 nm for all measurements. The stock solutions of PPIs were prepared at a concentration of 1 mg/mL in MeOH. Subsequent dilutions were prepared using water. The injected samples were mixed and diluted from the stock solutions. The final concentration for the eutomer was 0.2 mg/mL, and for the distomer, it was 0.1 mg/mL. A volume of 2 μL was injected. To mitigate the instability of PPIs in aqueous solutions, the samples were kept at a temperature of 4 °C. […] After 24 h, new samples were prepared for injection. Chromatographic parameters were calculated based on the following equations. The retention factor (k) was calculated as:(1) k=(tr−t0)/t0 where tr is the retention time of the investigated analyte, and t0 is the dead time, determined as the first peak appearance in the chromatogram. Resolution was calculated based on the following equation:(2) Rs=2(t2−t1)/(w1+w2) where t2 and t1 are the retention times of the second and first eluted enantiomers, respectively, while w is the peak width. The separation factor (α) was calculated as follows:(3) α=k2/k1 where k1 and k2 are the retention factors of the first- and second-eluting enantiomers, respectively. The k values were also used to calculate the protein-bound percentage (b%) using Equation (4):(4) b%=k/1+k×100

[2] = target: human serum albumin (HSA) (Homo sapiens, UniProt P02768); assay: Bound percentage by HPLC on HSA column, extrapolation to zero organic modifier; format: in vitro ADME; conditions: for Bound percentage (b%), average: average of IPA, EtOH, MeOH
human serum albumin (HSA), sequence (P02768 25-609): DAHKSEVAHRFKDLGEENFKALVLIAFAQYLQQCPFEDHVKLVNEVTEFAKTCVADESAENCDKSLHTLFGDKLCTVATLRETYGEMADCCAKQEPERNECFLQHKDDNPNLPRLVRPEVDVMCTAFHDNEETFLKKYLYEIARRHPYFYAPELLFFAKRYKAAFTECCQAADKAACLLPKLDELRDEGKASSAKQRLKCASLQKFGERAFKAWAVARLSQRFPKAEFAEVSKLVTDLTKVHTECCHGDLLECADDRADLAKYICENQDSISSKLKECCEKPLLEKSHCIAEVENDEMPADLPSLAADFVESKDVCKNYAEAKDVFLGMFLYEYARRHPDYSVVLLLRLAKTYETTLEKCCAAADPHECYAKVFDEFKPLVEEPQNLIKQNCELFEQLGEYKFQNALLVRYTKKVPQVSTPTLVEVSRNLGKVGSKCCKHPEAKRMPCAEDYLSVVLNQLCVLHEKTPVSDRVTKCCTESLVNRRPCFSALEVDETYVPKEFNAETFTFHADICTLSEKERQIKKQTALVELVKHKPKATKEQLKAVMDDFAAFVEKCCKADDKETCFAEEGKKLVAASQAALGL
Experimental: as §1
Chromatographic measurements were carried out on two separate HPLC systems. The AGP binding study was performed on a Waters 2695e chromatographic system paired with a Waters 2996 PDA detector, controlled by Empower 3 FR5 (Waters Corp., Milford, MA, USA), while the HSA binding study was performed on an Agilent 1100 HPLC system, consisting of an inline degasser (G1322A), a quaternary pump (G1311A), an automatic injector (G1329A) paired with sample thermostat (G1330A), a column thermostat (G1316A), and a diode array detector (G1315A) with Agilent Chemstation B04.03-SP2 software (Agilent, Bronnwald, Germany). For the binding studies, two protein-based chiral stationary phases were utilized. The chromatographic binding study for AGP was conducted on a ChromTech Chiral-AGP column (150 mm × 4.0 mm; ChromTech Ltd., Congleton, UK), while the binding study for HSA was performed on a Daicel Chiralpak HSA column (50 mm × 4.0 mm; Daicel Corp., Osaka, Japan). The detection wavelength was 210 nm for all measurements. The stock solutions of PPIs were prepared at a concentration of 1 mg/mL in MeOH. Subsequent dilutions were prepared using water. The injected samples were mixed and diluted from the stock solutions. The final concentration for the eutomer was 0.2 mg/mL, and for the distomer, it was 0.1 mg/mL. A volume of 2 μL was injected. To mitigate the instability of PPIs in aqueous solutions, the samples were kept at a temperature of 4 °C. Cooling the samples to 4 °C prevented significant decomposition for a period of 24 h. After 24 h, new samples were prepared for injection. Chromatographic parameters were calculated based on the following equations. The retention factor (k) was calculated as:(1) k=(tr−t0)/t0 where tr is the retention time of the investigated analyte, and t0 is the dead time, determined as the first peak appearance in the chromatogram. Resolution was calculated based on the following equation:(2) Rs=2(t2−t1)/(w1+w2) where t2 and t1 are the retention times of the second and first eluted enantiomers, respectively, while w is the peak width. The separation factor (α) was calculated as follows:(3) α=k2/k1 where k1 and k2 are the retention factors of the first- and second-eluting enantiomers, respectively. The k values were also used to calculate the protein-bound percentage (b%) using Equation (4):(4) b%=k/1+k×100

[3] = extrapolation to zero percent EtOH
[4] = extrapolation to zero percent IPA
[5] = extrapolation to zero percent MeOH

Row | Compound | Bound percentage (b%), average [1] | Bound percentage (b%) [1, 3] [%] | Bound percentage (b%) [1, 4] [%] | Bound percentage (b%) [1, 5] [%] | Bound percentage (b%), average [2] | Bound percentage (b%) [2, 3] [%] | Bound percentage (b%) [2, 4] [%] | Bound percentage (b%) [2, 5] [%]
1 | Cc1c(OCC(F)(F)F)ccnc1C[S@@+]([O-])c1nc2ccccc2[nH]1 [R-lansoprazole, dexlansoprazole] | 97.56% and 97.56 ± 1.39% | 97.60 | 98.93 | 96.16 | 92.45% and 92.45 ± 0.59% | 92.69 | 91.77 | 92.89
2 | Cc1c(OCC(F)(F)F)ccnc1C[S@+]([O-])c1nc2ccccc2[nH]1 [S-lansoprazole] | 96.86% and 96.86 ± 1.79% | 96.92 | 98.62 | 95.04 | 94.64% and 94.64 ± 0.89% | 94.85 | 93.67 | 95.42
